Literature values as cited in patent US20240350591A1, “COMPOSITION AND METHODS OF TREATMENT USING […]-ENHANCED SUPPLEMENTATION” (Xygenyx Inc., priority 2023, published 2024).
Non-standard residues stand in square brackets, D forms with d. Residues, ends and D or L forms follow the SMILES beside them. ξ: configuration not given here. Cit = NC(=O)NCCC[C@H](N)C(=O)O; Ile(3ξ) = CCC(C)[C@H](N)C(=O)O

Tests used:
[1] = compared to α-tocopherol = 1.0
[2] = dietary intake in equal portions
[3] = tested on: F2-isoprostane; settings: large doses of 1600-3200 IU/day
[4] = tested on: skin; settings: topical, concentrations 0.5-5%
[5] = patients who did not respond to traditional antidepressant medications
[6] = tested on: skin; settings: topical formulations, within four weeks of treatment
[7] = in vivo
[8] = transdermal route
[9] = not given; remark: listed apart in the source
[10] = tested on: wide dynamic range neurons in the ventroposterolateral nucleus of the thalamus; settings: in vivo
[11] = tested on: markers of inflammation; settings: individuals with metabolic syndrome

## Cc1c(O)cc2c(c1C)O[C@](C)(CCC[C@H](C)CCC[C@H](C)CCCC(C)C)CC2 [γ-tocopherol]
[1]
  relative biological activity: 0.1
[2]
  concentration in vivo relative to α-tocopherol: roughly 10%

## Cc1c(C)c2c(c(C)c1O)CC[C@@](C)(CCC[C@H](C)CCC[C@H](C)CCCC(C)C)O2 [α-tocopherol]
Dietary supplementation, doses up to 400 IU/day
  reduction of risk of coronary disease: up to 34%
Dietary supplementation, doses up to 400 IU/day, controlled trials
  reduction of risk of developing neurodegenerative diseases (Alzheimer's Syndrome or dementia): ≤ 24%
In combination with 10-20 mg β-carotene and 400-500 mg vitamin C, doses around 400-500 IU
  reduction in the development of age-related cataracts: 23%
[3]
  blood plasma concentration of F2-isoprostane: significantly lower
[1]
  relative biological activity: 1.0

## C=CCCCCCCCCC(=O)N[C@@H](Cc1ccccc1)C(=O)O [UP, Undecylenoyl phenylalanine]
[4]
  time of treatment to skin lightening effects: ≥ 7 days

## CN1c2c([nH]c(N)nc2=O)NCC1CNc1ccc(C(=O)N[C@@H](CCC(=O)O)C(=O)O)cc1 (some centres unmarked) [5-MTHF, 5-methyltetrahydrofolate]
[5]
  symptoms of depression: improved

## CCC(C)[C@H](NC(=O)[C@H](CC(=O)O)NC(=O)[C@@H](N)CCCCN)C(=O)N[C@@H](CCCNC(N)=O)C(N)=O (some centres unmarked) [tripeptide-10 citrulline, Tripeptide-10 citrulline] (H-KD[Ile(3ξ)][Cit]-NH2)
[6]
  improvement of suppleness: ≤ 54%

## HGH: hormone comprising a peptide chain that is synthesized in the pituitary gland
[7]
  biological half-life: 10-20 minutes

## Cc1cc(O)c(C)c2c1O[C@](C)(CCC[C@H](C)CCC[C@H](C)CCCC(C)C)CC2 [β-tocopherol]
[1]
  relative biological activity: 0.5

## CC(C)[C@@H]1CC[C@@H](C)C[C@H]1O [Menthol]
[8]
  factor of increase of drug uptake: ≥ 10

## C=C1CC/C=C(\C)CC[C@@H]2[C@@H]1CC2(C)C [β-caryophyllene]
[9]; arthritic subjects
  increases of protein carbonyl groups and myeloperoxidase activity in the liver and plasma: eliminated
[9]; rheumatoid arthritis
  number of circulating and articular leukocytes: reduced
  swelling of joints and lymph nodes: reduced

## CCCCCc1cc(O)c2c(c1)OC(C)(C)C1CCC(C)=CC21 (centres unmarked) [THC, Δ-9-tetrahydrocannabinol]
[10]
  power in mediating pain relative to morphine: ten times

## CC12CCC(CC1)C(C)(C)O2 [eucalyptol, 1,8-epoxy-p-menthane]
[8]
  factor of increase of drug uptake: more than 10

## Cc1cc(O)cc2c1O[C@](C)(CCC[C@H](C)CCC[C@H](C)CCCC(C)C)CC2 [δ-tocopherol]
[1]
  relative biological activity: 0.03
[11]
  markers of inflammation in the blood: reduced
